Experimental data from patent US8383125B2, “Antimicrobial protein” (Agriculture Victoria Services Pty, Limited, priority 2006, dated 2013).
Values after ≈ are worked out from the molar mass of the structure shown. Like-named read-outs stand apart in the source and are kept apart here. Where a SMILES comes first, the peptide text is derived from it. Where no end group is shown, it is not given here. [ ]: non-standard residue; d: D form.

How the values were obtained:
E. coli DH5α = settings: for antimicrobial activity, cleared area in radial diffusion assay (FIG. 4): 5 μl of 250 μg/ml solutions
Description: Briefly, approximately 4×10^6 of mid-logarithmic-phase organisms were grown on plates in 11 ml of warm 0.8% agarose containing 0.03% (w/v) Tryticase soy broth (TSB) powder, with or without 100 mM NaCl, buffered with 10 mM sodium phosphate, pH 7.4. The test peptide was serially diluted in acidified water (0.01% acetic acid), and 5 μl of diluted peptide sample was loaded in a 2.5 diameter well in the agarose. A 10 ml overlay gel composed of 6% TSB, 0.8% agarose and 10 mM sodium phosphate buffer (pH 7.4) was poured into each well. Plates were then incubated overnight to allow the surviving organisms to form microcolonies. The clear zone were measured to the nearest 0.1 mm using a magnified transilluminator and expressed in units (1 mm=10 U) after subtracting the well diameter. The minimum inhibitory concentration (MIC) is defined by the χ intercept of a regression line through zone diameters obtained from a series of serially diluted peptide samples.

Escherichia coli DH5 α = type: cell-based
Description: (§1) The MIC values of SEQ ID NO: 2 and SEQ ID NO: 19 were also determined against a range of multidrug-resistant isolates, including clinical and laboratory strains. Peptides, maintained at −20° C. in solid form for storage purposes, were subsequently dissolved in 0.01% (v/v) acetic acid (Sigma-Aldrich) to a stock concentration of […]. The stock solutions were made fresh for each experiment. Eighteen (18) bacterial isolates obtained from the Facility for Anti-Infective Drug Development and Innovation, Victoria, Australia (FADDI) as listed in Table 2 were maintained as stock cultures in Tryptic Soya Broth plus 20% (v/v) glycerol at a temperature of −80° C., and subcultured onto Nutrient Agar for each experiment. MIC values were determined in cation-adjusted Mueller-Hinton broth (CAMHB) and Mueller-Hinton broth (MHB) using standard broth micro-dilution methods.

[1] = tested on: Pseudomonas aeruginosa (ATCC 27853); type: cell-based
Description: as §1

[2] = tested on: Klebsiella pneumoniae (ATCC 13883); type: cell-based
Description: as §1

[3] = tested on: Acinetobacter baumannii (ATCC 19606); type: cell-based
Description: as §1

S. aureus (ATCC 43300) = type: cell-based, Staphylococcus aureus; settings: ATCC 43300, 17 h
Description: as §1

[4] = tested on: A. baumannii strain FADDI 005 (ATCC 19606 derivative); type: cell-based, Acinetobacter baumannii; settings: 17 hr at 35° C.
Description: as §1
Pseudomonas aeruginosa (ATCC 27853) and S. aureus (ATCC 43300) were included as quality controls in experiments. P. aeruginosa strains FADDI 001 and FADDI 002 are mucoid; and P. aeruginosa strains FADDI 003 and FADDI 004 are non-mucoid. P. aeruginosa strain FADDI 003 also has a small colony morphology. The A. baumannii strain FADDI 005 is a colistin-resistant isolate obtained from Mueller-Hinton agar containing 10 mg/L colistin.

[5] = tested on: A. baumannii strain FADDI 006; type: cell-based, Acinetobacter baumannii; settings: strain FADDI 006, 17 h
Description: as §1

[6] = tested on: A. baumannii strain FADDI 007; type: cell-based, Acinetobacter baumannii; settings: strain FADDI 007, 17 h
Description: as §1

[7] = tested on: tammar wallaby erythrocytes; type: cell-based
Description: The toxicity of the antimicrobial peptides was determined using a haemolytic assay. In particular, the hemolytic activity of the peptides was determined using tammar wallaby erythrocytes. Fresh erythrocytes were harvested from heparinized blood taken from a tammar wallaby. Erythrocytes were harvested by centrifugation for 3 min at 3000 g. Erythrocytes were then washed three times with PBS (pH 7.4) until the supernatant was essentially colourless. 20 μl two fold serial dilutions of the peptide were mixed with the same volume of erythrocytes in solution 2%) in PBS of each well of a 96-plate. 80 μl PBS was added to each well after the plate was incubated at 37° C. for one hour. Plates were then centrifuged at 3000 g for 5 min. 90 μl of the resulting supernatant was transferred to a flat-bottom microtiter plate and haemoglobin release was monitored by measuring the absorbance at 414 nm with an ELISA plate reader. […] Each sample was performed in triplicate. Percentage hemolysis was calculated by the following formula: [(OD414 peptide−OD414 buffer)/OD414 complete hemolysis−OD414 buffer)]×100%.

[8] = tested on: Staphylococcus aureus (ATCC 25923); type: cell-based
[9] = tested on: P. aeruginosa strain FADDI 002; type: cell-based, Pseudomonas aeruginosa; settings: strain FADDI 002, 17 h
Description: as §1

[10] = tested on: Candida albicans (ATCC 753); type: cell-based
[11] = tested on: Streptococcus agalactiae (ATCC 12927); type: cell-based
[12] = tested on: Enterococcus faecium (ATCC 700221); type: cell-based; settings: ATCC 700221, 17 h
Description: as §1

[13] = tested on: Staphylococcus aureus (ATCC 700698); type: cell-based; settings: ATCC 700698, 17 h
Description: as §1

[14] = tested on: K. pneumoniae strain FADDI 010; type: cell-based, Klebsiella pneumoniae; settings: strain FADDI 010, 17 h
Description: as §1

[15] = tested on: K. pneumoniae strain FADDI 009; type: cell-based, Klebsiella pneumoniae; settings: strain FADDI 009, 17 h
Description: as §1

S. aureus 700699 = type: cell-based, Staphylococcus aureus; settings: 700699, 17 h
Description: as §1

[16] = tested on: S. aureus strain FADDI 011; type: cell-based, Staphylococcus aureus; settings: strain FADDI 011, 17 h
Description: as §1

[17] = tested on: P. aeruginosa (ATCC 28753); type: cell-based, Pseudomonas aeruginosa
[18] = tested on: Salmonella choleraesuis (ATCC 14028); type: cell-based
Bacillus subtilis = type: cell-based
[19] = tested on: Streptococcus equi equi (ATCC 9527); type: cell-based; settings: ATCC 9527
[20] = tested on: Streptococcus pyogenes (ATCC 19615); type: cell-based
[21] = MHB (less than 5 mg/L Mg2+ and 24 mg/L Ca2+), 17 hr at 35° C.

## PLPIPIVVNFNKLRKKISNRFKKLRKRLKKGFGRK [SEQ ID NO: 13]
E. coli DH5α; E. coli
  antimicrobial activity, cleared area in radial diffusion assay (FIG. 4): exhibits antimicrobial activity

## D-Lys Arg Gly Phe Gly Lys Lys Leu Arg Lys Arg Leu Lys Lys Phe Arg Asn Ser Ile Lys Lys Arg Leu Lys Asn Phe Asn Val Val Ile Pro Ile Pro Leu D-Pro ([dK]RGFGKKLRKRLKKFRNSIKKRLKNFNVVIPIPL[dP]) [SEQ ID NO: 11]
E. coli DH5α; E. coli
  antimicrobial activity, cleared area in radial diffusion assay (FIG. 4): exhibits antimicrobial activity

## CC[C@H](C)[C@H](NC(=O)[C@H](CCCCN)NC(=O)[C@H](CCC(=O)O)NC(=O)[C@H](CCCCN)NC(=O)[C@H](CO)NC(=O)[C@H](CCCCN)NC(=O)[C@H](CCCNC(=N)N)NC(=O)[C@H](Cc1ccccc1)NC(=O)[C@H](Cc1ccccc1)NC(=O)[C@H](CC(=O)O)NC(=O)CNC(=O)[C@H](CC(C)C)NC(=O)[C@@H](N)CC(C)C)C(=O)NCC(=O)N[C@@H](CCCCN)C(=O)N[C@@H](CCC(=O)O)C(=O)N[C@@H](Cc1ccccc1)C(=O)N[C@@H](CCCCN)C(=O)N[C@@H](CCCNC(=N)N)C(=O)N[C@H](C(=O)N[C@H](C(=O)N[C@@H](CCC(N)=O)C(=O)N[C@@H](CCCNC(=N)N)C(=O)N[C@H](C(=O)N[C@@H](CCCCN)C(=O)N[C@@H](CC(=O)O)C(=O)N[C@@H](Cc1ccccc1)C(=O)N[C@@H](CC(C)C)C(=O)N[C@@H](CCCNC(=N)N)C(=O)N[C@@H](CC(N)=O)C(=O)N[C@@H](CC(C)C)C(=O)N[C@H](C(=O)N1CCC[C@H]1C(=O)N[C@@H](CCCNC(=N)N)C(=O)N[C@H](C(=O)N[C@@H](CCC(=O)O)C(=O)N[C@@H](CO)C(=O)O)[C@@H](C)O)C(C)C)[C@@H](C)CC)C(C)C)[C@@H](C)CC [LL-37, reference compound]
Escherichia coli DH5 α; microbroth dilution in MHB
  MIC: 32 µg/mL (≈ 7.12 µM)
[1]; [21]
  MIC: >32 µg/mL
[2]; [21]
  MIC: 32 µg/mL (≈ 7.12 µM)
[3]; [21]
  MIC: 32 µg/mL (≈ 7.12 µM)

## CC[C@@H](C)[C@@H](NC(=O)[C@@H](CO)NC(=O)[C@@H](CC(N)=O)NC(=O)[C@@H](CCCNC(=N)N)NC(=O)[C@@H](Cc1ccccc1)NC(=O)[C@@H](CCCCN)NC(=O)[C@@H](CCCCN)NC(=O)[C@@H](CC(C)C)NC(=O)[C@@H](CCCNC(=N)N)NC(=O)[C@@H](CCCCN)NC(=O)[C@@H](CCCNC(=N)N)NC(=O)[C@@H](CC(C)C)NC(=O)[C@@H](CCCCN)NC(=O)[C@@H](CCCCN)NC(=O)CNC(=O)[C@@H](Cc1ccccc1)NC(=O)CNC(=O)[C@@H](CCCNC(=N)N)NC(=O)[C@H](N)CCCCN)C(=O)N[C@H](CCCCN)C(=O)N[C@H](CCCCN)C(=O)N[C@H](CCCNC(=N)N)C(=O)N[C@H](CC(C)C)C(=O)N[C@H](CCCCN)C(=O)N[C@H](CC(N)=O)C(=O)N[C@H](Cc1ccccc1)C(=O)N[C@H](CC(N)=O)C(=O)N[C@@H](C(=O)N[C@@H](C(=O)N[C@@H](C(=O)N1CCC[C@@H]1C(=O)N[C@@H](C(=O)N1CCC[C@@H]1C(=O)N[C@H](CC(C)C)C(=O)N1CCC[C@@H]1C(N)=O)[C@H](C)CC)[C@H](C)CC)C(C)C)C(C)C [SEQ ID NO: 9, D-Lys D-Arg D-Gly D-Phe D-Gly D-Lys D-Lys D-Leu D-Arg D-Lys D-Arg D-Leu D-Lys D-Lys D-Phe D-Arg D-Asn D-Ser D-Ile D-Lys D-Lys D-Arg D-Leu D-Lys D-Asn D-Phe D-Asn D-Val D-Val D-Ile D-Pro D-Ile D-Pro D-Leu D-Pro] (H-[dK][dR]G[dF]G[dK][dK][dL][dR][dK][dR][dL][dK][dK][dF][dR][dN][dS][dI][dK][dK][dR][dL][dK][dN][dF][dN][dV][dV][dI][dP][dI][dP][dL][dP]-NH2; N-terminus and C-terminus assumed)
Escherichia coli DH5 α; DH5 α
  MIC: 4 µg/mL (≈ 0.948 µM)
[1]; ATCC 27853, 17 h
  MIC: 4 µg/mL (≈ 0.948 µM)
[2]; ATCC 13883, 17 h
  MIC: 4 µg/mL (≈ 0.948 µM)
[3]; ATCC 19606, 17 h
  MIC: 8 µg/mL (≈ 1.9 µM)
S. aureus (ATCC 43300)
  MIC: >32 µg/mL

## D-Pro Leu Pro Ile Pro Ile Val Val Asn Phe Asn Lys Leu Arg Lys Lys Ile Ser Asn Arg Phe Lys Lys Leu Arg Lys Arg Leu Lys Lys Gly Phe Gly Arg D-Lys ([dP]LPIPIVVNFNKLRKKISNRFKKLRKRLKKGFGR[dK]) [SEQ ID NO: 17]
E. coli DH5α; E. coli
  antimicrobial activity, cleared area in radial diffusion assay (FIG. 4): exhibits antimicrobial activity

## KRGFGKKLRKRLKKFRNSIKKRLKNFNVVIPIPLP-NH2 [SEQ ID NO: 2]
[4]; CAMHB (10.0 mg/L Mg2+ and 24 mg/L Ca2+)
  MIC: 8 µg/mL
[4]; MHB (less than 5 mg/L Mg2+ and 24 mg/L Ca2+)
  MIC: 4 µg/mL
[5]
  MIC: >64 µg/mL
[6]
  MIC: 8 µg/mL
[7]
  haemolysis at the MIC determined in Example 1: less than 5%
  haemolysis at the majority of concentrations tested (FIGS. 2a and 2b): did not cause substantial levels of haemolysis
[8]; Table 1
  antimicrobial activity in words: weaker antimicrobial activity
[9]
  MIC: 4 µg/mL
[10]; Table 1
  antimicrobial activity in words: Weaker antimicrobial activity
[11]; Table 1
  antimicrobial activity in words: moderate antimicrobial activity
E. coli DH5α; 5 μl of 250 μg/ml solutions of each peptide, E. coli
  radial clear zone compared to LL-37 (FIG. 3): larger radial clear zone
[12]
  MIC: 16 µg/mL
Escherichia coli DH5 α; DH5 α
  MIC: 2 µg/mL
[13]
  MIC: >64 µg/mL
[14]
  MIC: 32 µg/mL
[15]
  MIC: 4 µg/mL
S. aureus 700699
  MIC: >64 µg/mL
[16]
  MIC: >64 µg/mL
S. aureus (ATCC 43300)
  MIC: >64 µg/mL

## RKKGSKRHKPGSYSVIALGKPGVKKSPYMEAL-NH2 [SEQ ID NO: 31]
[8]; ATCC 25923
  MIC: 8.5 ± 0.23 µg/mL
[17]
  MIC: 57.8 µg/mL
[18]
  MIC: >250 µg/mL
Bacillus subtilis
  MIC: 14.03 ± 0.25 µg/mL
[10]; ATCC 753
  MIC: >250 µg/mL
[11]; ATCC 12927
  MIC: 5.44 ± 0.11 µg/mL
E. coli DH5α; DH5 α
  MIC: 1.16 ± 0.67 µg/mL
E. coli DH5α; Table 1
  antimicrobial activity in words: strong protection
[19]
  MIC: 8.66 ± 0.45 µg/mL
[20]; ATCC 19615
  MIC: 3.43 ± 0.34 µg/mL
[20]; Table 1
  antimicrobial activity in words: moderate protection
